Source: patent US20070243201A1, “Method for Selecting Epitopes for Immunotherapy” (Igeneon Krebs-Immuntherapie Forschungs-und entwicklungs-AG, priority 2003, published 2007)

System: immune serum
Assay: Ep-CAM epitope mapping by solid phase peptide (spot) synthesis: binding of biotinylated serum IgG to immobilized decapeptides
Conditions: immune serum of a patient after active immunotherapy with mAb17-1A (EpCAM antibody), taken 71 days after immunization; compared with pre-serum of day 1, which does not show this binding or shows it to a slight degree only; FIG. 1
Protocol: Protein G Sepharose Fast Flow (Amersham Biosciences) was packed into an HR 5 column (inner diameter 5 mm; Amersham Biosciences). The column was equilibrated with 5 column volumes of PBS buffer at a flow rate of 0.33 ml/min. Subsequently, serum was loaded at the same flow rate, followed by washing with further 5 column volumes. Elution was carried out with 0.2 M acetic acid +20% ethylene glycol, pH 2.7. The eluate was taken up in 1 M sodium bicarbonate buffer and thus brought to pH 8.6.
One aliquot of the purified serum was incubated with NHS-LC biotin for 1 h at room temperature. Subsequently, the sample was re-buffered via a Sephadex G25 gel filtration column (PD-10, Amersham Biosciences) so as to separate the biotinylated […] from free […], on the one hand, and to further transfer it into a medium suitable for the test system.
The spot synthesis was carried out by means of a modified method according to Frank (Tetrahedron 48 (1992) 9217-9232). Whatman 540 cellulose was dried over night in the desiccator. The membrane was then functionalized for 3 h with 0.2 M Fmoc-β alanine, 0.24 M diisopropyl carbodiimide and 0.4 M 1-methyl-imidazole. After washing with 3× dimethylformamide (DMF), the Fmoc group was cleaved off by treatment with 20% piperidine in DMF. The peptides were synthesized by means of the AutoSpot Robot ASP222 (INTAVIS, Germany). As the first amino acid, always a further β-alanine spacer was introduced. After the first β-alanine coupling, the remaining free amino groups were acetylated with 2% acetic anhydride. As the amino acids, Fmoc-protected Opfp esters of the amino acids (O-pentafluorophenyl, Novabiochem), dissolved in N-methyl pyrrolidone at a concentration of 0.3 M were used. Each amino acid was spotted twice per cycle. After each cycle, the Fmoc group was cleaved off with piperidine, as described above, and then the membrane was washed 6× with DMF. After the synthesis of the last amino acid, it was again acetylated, and then the side protection groups were cleaved off. At first, the membrane was treated with 90% trifluoroacetic acid, 3% triisobutyl silane, 1% phenol, 2% water and 4% dichloromethane for 30 minutes. Subsequently, the membrane was washed 5× with DCM, 3× with DMF and methanol and dried. This was followed by a further cleavage by treatment with 50% trifluoroacetic acid, 3% triisobutyl silane, 1% phenol, 2% water and 44% dichloromethane for two hours. […]
Since the major immune response is provided in the form of IgG, IgG was purified from the sera via protein G Sepharose. […] The concentration of the biotinylated IgG was determined via photometric absorption measurement at 280 nm, and after the addition of 0.2% sodium azide the material was stored at 4° C. […]

Row | Sequence | binding of immune serum to the 10 mer peptides
1 | DLDPGQTLIY [compound 61] | increasingly binds
2 | IADVAYYFEK [compound 53] | increasingly binds
3 | DPKFITSILY [compound 45] | increasingly binds
4 | ALQKEITTRY [compound 42] | increasingly binds
